In patent US20110086759A1, “CHEMICAL COMPOUNDS” (SYNGENTA CROP PROTECTION, INC., priority 2007, published 2011):

What was measured:
Assay type in all cases: in vivo
Setaria faberi (SETFA) [1] = assay: Post-emergence biological efficacy, glasshouse pot test; settings: 312 h
How it was run: (§1)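 Pot-grown weeds were sprayed 8 days after sowing with test compound in acetone/water (50:50) with 0.5% Tween 20 at 1000 or 250 g/ha. Glasshouse at 24/16° C day/night, 14 h light, 65% humidity. Damage scored 0-100 (100 = total damage) after 13 days.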

[2] = test system: Ipomea hederaceae (IPOHE); assay: as above; settings: Ipomoea hederacea, 312 h
How it was run: as §1

[3] = test system: Amaranthus retoflexus (AMARE); assay: as above; settings: Amaranthus retroflexus, 312 h
How it was run: as §1

[4] = test system: Echinochloa crus-galli (ECHCG); assay: as above; settings: 312 h
How it was run: as §1

[5] = test system: Alopecurus myosuroides (ALOMY); assay: as above; settings: 312 h
How it was run: as §1

Solanum nigrum (SOLNI) [6] = assay: as above; settings: 312 h
How it was run: as §1

Setaria faberi (SETFA) [7] = assay: Pre-emergence biological efficacy, glasshouse pot test; settings: 312 h
How it was run: (§2)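 One day after sowing in standard soil, pots were sprayed with compound in acetone/water (50:50) with 0.5% Tween 20, at 1000 or 250 g/ha. Plants grew at 24/16° C day/night, 14 h light, 65% humidity. Damage was scored after 13 days (0 = none, 100 = total).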

[8] = test system: Ipomea hederaceae (IPOHE); assay: as above; settings: Ipomoea hederacea, 312 h
How it was run: as §2

[9] = test system: Amaranthus retoflexus (AMARE); assay: as above; settings: Amaranthus retroflexus, 312 h
How it was run: as §2

[10] = test system: Echinochloa crus-galli (ECHCG); assay: as above; settings: 312 h
How it was run: as §2

[11] = test system: Alopecurus myosuroides (ALOMY); assay: as above; settings: 312 h
How it was run: as §2

Solanum nigrum (SOLNI) [12] = assay: as above; settings: 312 h
How it was run: as §2

[13] = post-emergence, 1,000 g/ha, evaluated after 13 days (100=total damage; 0=no damage), read-out: Percentage damage caused to weed species, SETFA
[14] = post-emergence, 1,000 g/ha, evaluated after 13 days (100=total damage; 0=no damage), read-out: Percentage damage caused to weed species, IPOHE
[15] = post-emergence, 1,000 g/ha, evaluated after 13 days (100=total damage; 0=no damage), read-out: Percentage damage caused to weed species, AMARE
[16] = post-emergence, 1,000 g/ha, evaluated after 13 days (100=total damage; 0=no damage), read-out: Percentage damage caused to weed species, ECHCG
[17] = post-emergence, 1,000 g/ha, evaluated after 13 days (100=total damage; 0=no damage), read-out: Percentage damage caused to weed species, ALOMY
[18] = post-emergence, 1,000 g/ha, evaluated after 13 days (100=total damage; 0=no damage), read-out: Percentage damage caused to weed species, SOLNI
[19] = pre-emergence, 1,000 g/ha, evaluated after 13 days (100=total damage; 0=no damage), read-out: Percentage damage SETFA
[20] = pre-emergence, 1,000 g/ha, evaluated after 13 days (100=total damage; 0=no damage), read-out: Percentage damage IPOHE
[21] = pre-emergence, 1,000 g/ha, evaluated after 13 days (100=total damage; 0=no damage), read-out: Percentage damage AMARE
[22] = pre-emergence, 1,000 g/ha, evaluated after 13 days (100=total damage; 0=no damage), read-out: Percentage damage ECHCG
[23] = pre-emergence, 1,000 g/ha, evaluated after 13 days (100=total damage; 0=no damage), read-out: Percentage damage ALOMY
[24] = pre-emergence, 1,000 g/ha, evaluated after 13 days (100=total damage; 0=no damage), read-out: Percentage damage SOLNI

| Compound | pest or weed control at 1000 g/ha (Setaria faberi (SETFA) [1]; [13]) [%] | pest or weed control at 1000 g/ha [2, 14] [%] | pest or weed control at 1000 g/ha [3, 15] [%] | pest or weed control at 1000 g/ha [4, 16] [%] | pest or weed control at 1000 g/ha [5, 17] [%] | pest or weed control at 1000 g/ha (Solanum nigrum (SOLNI) [6]; [18]) [%] | pest or weed control at 1000 g/ha (Setaria faberi (SETFA) [7]; [19]) [%] | pest or weed control at 1000 g/ha [8, 20] [%] | pest or weed control at 1000 g/ha [9, 21] [%] | pest or weed control at 1000 g/ha [10, 22] [%] | pest or weed control at 1000 g/ha [11, 23] [%] | pest or weed control at 1000 g/ha (Solanum nigrum (SOLNI) [12]; [24]) [%] | further results |
| --- | --- | --- | --- | --- | --- | --- | --- | --- | --- | --- | --- | --- | --- |
| COC(=O)c1nc(C2CC2)nc(NC(CS(C)(=O)=O)c2ccc(OC)cc2)c1Cl (stereo not drawn) [Compound 4-205, 5-Chloro-2-cyclopropyl-6-methoxycarbonyl-4-[1-(4-methoxy-phenyl)-2-methylsulphonyl-ethylamino]-pyrimidine] | 0 | 20 | 20 | 0 | 0 | 10 | 0 | 0 | 0 | 0 | 0 | 0 | – |
| COC(=O)c1nc(-c2ccc(Cl)cc2C(F)(F)F)nc(NCc2ccco2)c1Cl [Compound 220-48, 5-Chloro-2-(4-chloro-2-trifluoromethyl-phenyl)-4-(furan-2-ylmethylamino)-6-methoxycarbonyl-pyrimidine] | – | – | – | – | – | – | – | – | – | – | – | – | pest or weed control at 1000 g/ha (Setaria faberi (SETFA) [1]; Rate 1,000 g/ha, post-emergence spray, evaluated after 13 days (100=total damage to plant; 0=no damage to plant), read-out: Percentage damage caused to weed species, post-emergence, SETFA): 0%; pest or weed control at 1000 g/ha ([2]; Rate 1,000 g/ha, post-emergence spray, evaluated after 13 days (100=total damage to plant; 0=no damage to plant), read-out: Percentage damage caused to weed species, post-emergence, IPOHE): 10%; pest or weed control at 1000 g/ha ([3]; Rate 1,000 g/ha, post-emergence spray, evaluated after 13 days (100=total damage to plant; 0=no damage to plant), read-out: Percentage damage caused to weed species, post-emergence, AMARE): 40%; pest or weed control at 1000 g/ha ([4]; Rate 1,000 g/ha, post-emergence spray, evaluated after 13 days (100=total damage to plant; 0=no damage to plant), read-out: Percentage damage caused to weed species, post-emergence, ECHCG): 0%; pest or weed control at 1000 g/ha ([5]; Rate 1,000 g/ha, post-emergence spray, evaluated after 13 days (100=total damage to plant; 0=no damage to plant), read-out: Percentage damage caused to weed species, post-emergence, ALOMY): 20%; pest or weed control at 1000 g/ha (Solanum nigrum (SOLNI) [6]; Rate 1,000 g/ha, post-emergence spray, evaluated after 13 days (100=total damage to plant; 0=no damage to plant), read-out: Percentage damage caused to weed species, post-emergence, SOLNI): 20%; pest or weed control at 1000 g/ha (Setaria faberi (SETFA) [7]; pre-emergence, rate 1,000 g/ha, evaluated after 13 days (100=total damage to plant; 0=no damage), read-out: Percentage damage caused to weed species, SETFA): 0%; pest or weed control at 1000 g/ha ([8]; pre-emergence, rate 1,000 g/ha, evaluated after 13 days (100=total damage to plant; 0=no damage), read-out: Percentage damage caused to weed species, IPOHE): 0%; pest or weed control at 1000 g/ha ([9]; pre-emergence, rate 1,000 g/ha, evaluated after 13 days (100=total damage to plant; 0=no damage), read-out: Percentage damage caused to weed species, AMARE): 20%; pest or weed control at 1000 g/ha ([10]; pre-emergence, rate 1,000 g/ha, evaluated after 13 days (100=total damage to plant; 0=no damage), read-out: Percentage damage caused to weed species, ECHCG): 0%; pest or weed control at 1000 g/ha ([11]; pre-emergence, rate 1,000 g/ha, evaluated after 13 days (100=total damage to plant; 0=no damage), read-out: Percentage damage caused to weed species, ALOMY): 0%; pest or weed control at 1000 g/ha (Solanum nigrum (SOLNI) [12]; pre-emergence, rate 1,000 g/ha, evaluated after 13 days (100=total damage to plant; 0=no damage), read-out: Percentage damage caused to weed species, SOLNI): 0% |
| COC(=O)c1nc(C2CC2)nc(NCc2ccc(C)o2)c1Cl [Compound 4-135, 5-Chloro-2-cyclopropyl-6-methoxy carbonyl-4-(5-methylfuran-2-ylmethylamino)-pyrimidine] | 90 | 100 | 100 | 90 | 60 | 100 | 90 | 100 | 100 | 100 | 60 | 100 | – |
| COC(=O)c1nc(C2CC2)nc(Nc2ccccc2)c1Cl [Compound 4-39, 5-Chloro-2-cyclopropyl-6-methoxycarbonyl-4-phenylamino-pyrimidine] | 60 | 70 | 100 | 70 | 50 | 80 | 0 | 80 | 60 | 20 | 0 | 50 | – |
